According to ChEMBL document CHEMBL3862010, “N-Arylsulfonyl-α-amino carboxamides are potent and selective inhibitors of the chemokine receptor CCR10 that show efficacy in the murine DNFB model of contact hypersensitivity” (Bioorg Med Chem Lett, 2016):

Tests used:
[1] = Time at which plasma concentration stays near or above in vitro murine IC50 level in Balb/C mouse at 100 mg/kg, ip bid; format: ADME, organism-based; details: in vivo
[2] = Protein binding in Balb/C mouse plasma at 100 mg/kg, ip bid; format: ADME, organism-based; details: Balb/C, plasma, read-out: PPB
[3] = Plasma concentration in Balb/C mouse at 100 mg/kg, ip bid measured after 1 hr; format: ADME, organism-based; details: in vivo
[4] = Plasma concentration in Balb/C mouse at 100 mg/kg, ip bid measured after 7 hrs; format: ADME, organism-based
[5] = biological target: C-C chemokine receptor type 6 (Homo sapiens, UniProt P51684); assay: Antagonist activity at human CCR6 assessed as inhibition of CCL20/MIP-3alpha-induced calcium flux; format: functional
Sequence of C-C chemokine receptor type 6 (P51684 whole entry): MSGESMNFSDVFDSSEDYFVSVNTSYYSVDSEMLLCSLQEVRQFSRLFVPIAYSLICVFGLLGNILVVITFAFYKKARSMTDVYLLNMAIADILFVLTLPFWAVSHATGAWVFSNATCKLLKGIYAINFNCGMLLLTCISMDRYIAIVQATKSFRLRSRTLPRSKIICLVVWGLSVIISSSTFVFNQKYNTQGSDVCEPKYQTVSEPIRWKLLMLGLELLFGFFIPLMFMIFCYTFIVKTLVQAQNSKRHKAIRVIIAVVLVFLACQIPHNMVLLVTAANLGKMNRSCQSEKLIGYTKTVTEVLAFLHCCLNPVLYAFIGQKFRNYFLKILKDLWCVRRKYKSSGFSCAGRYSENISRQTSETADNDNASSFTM

[6] = biological target: T1, C-C chemokine receptor type 10 (Homo sapiens, UniProt P46092); assay: Antagonist activity at human CCR10 expressed in CHOK1 cells coexpressing aequorin/Galphaq assessed as inhibition of human CCL27-dependent calcium flux in presence of coelenterazine H by chemiluminescence assay; format: functional, cell-based, CHO-K1; details: read-out: pIC50 (converted)
T1 sequence (P46092 whole entry): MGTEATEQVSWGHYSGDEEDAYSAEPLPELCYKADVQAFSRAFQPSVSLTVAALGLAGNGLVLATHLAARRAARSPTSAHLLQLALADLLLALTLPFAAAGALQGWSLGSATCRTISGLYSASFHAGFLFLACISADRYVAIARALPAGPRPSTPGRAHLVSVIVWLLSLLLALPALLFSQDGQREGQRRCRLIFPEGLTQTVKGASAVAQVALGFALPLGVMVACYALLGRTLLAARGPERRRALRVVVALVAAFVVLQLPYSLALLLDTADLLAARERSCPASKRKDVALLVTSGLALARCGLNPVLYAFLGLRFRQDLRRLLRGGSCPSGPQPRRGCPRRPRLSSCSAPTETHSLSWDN

Mus musculus = assay: Antiinflammatory activity in Balb/C mouse model of contact hypersensitivity assessed as inhibition of DNFB-stimulated ear swelling at 100 mg/kg, ip bid administered at 0 and 8 hrs measured 24 hrs post DNFB stimulation; format: functional
[7] = biological target: T2, C-C chemokine receptor type 10 (Mus musculus, UniProt Q9JL21); assay: Antagonist activity at mouse CCR10 expressed in CHOK1 cells coexpressing aequorin/Galphaq assessed as inhibition of CCL27-dependent calcium flux in presence of coelenterazine H by chemiluminescence assay; format: functional, cell-based, CHO-K1
T2 sequence (Q9JL21 whole entry): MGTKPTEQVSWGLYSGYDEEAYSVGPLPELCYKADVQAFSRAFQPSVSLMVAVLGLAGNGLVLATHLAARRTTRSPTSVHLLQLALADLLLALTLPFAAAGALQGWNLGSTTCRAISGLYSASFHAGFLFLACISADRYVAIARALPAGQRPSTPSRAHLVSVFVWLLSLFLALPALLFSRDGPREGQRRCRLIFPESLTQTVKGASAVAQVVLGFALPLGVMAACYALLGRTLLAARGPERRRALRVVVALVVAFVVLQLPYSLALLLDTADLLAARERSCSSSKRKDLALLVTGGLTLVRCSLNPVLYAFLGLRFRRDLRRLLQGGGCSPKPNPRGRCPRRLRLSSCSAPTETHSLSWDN

[8] = Plasma concentration in Balb/C mouse at 30 mg/kg, ip bid measured after 1 hr; format: ADME, organism-based; details: Balb/C, plasma

In the case of `CC1CCN(C(=O)C(CCn2cccc2C#N)NS(=O)(=O)c2cccc3[nH]ccc23)CC1` (stereo in doubt; form 1), the Time [1] is reported as “<= 8 hr”, the fraction unbound [2] is reported as 0.01 and the concentration [3] is reported as 7.6 µM. It also gave a concentration at 7 h [4] of 0.2 µM, an IC50 [5] greater than 10000 nM and an IC50 [6] of 1 nM. The inhibition in vivo at 100 mg/kg (Mus musculus) was 75%, the IC50 [7] was 25.1 nM and the concentration at 1 h [8] was 3.7 µM.
